We go through eight molecules from PubChem BioAssay (NCI).

Some test systems named below: KM12 colon; SF-539 CNS; T-47D breast; UACC-257 melanoma; MALME-3M melanoma; HCT-116 colon; UACC-62 melanoma; SR leukemia; HOP-92 NSCLC; HCT-15 colon.
Holding throughout (assay): NCI-60 cell line screen, 48 h

Values joined by “and” are separate entries in the source; they are usually repeats but may differ in a detail not shown here. Equal entries are not always repeated.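 Cells were grown in 96-well plates and exposed to each compound for 48 hours at five concentrations; endpoints were interpolated linearly between bracketing concentrations, or set to the highest concentration if not reached. GI50 is the concentration that inhibits growth by half. TGI: concentration producing complete growth inhibition.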

Regarding `COc1ccc(Cc2cnc(NC(=O)c3ccc4c(c3)OCCO4)s2)cc1`, the GI50 in the assay on KM12 colon is 26.4 nM; in the assay on SF-539 CNS, 25.7 nM; with T-47D breast it was 2950 nM; with UACC-257 melanoma it was 4830 nM; in the assay with MALME-3M melanoma, 1520 nM; in the assay with HCT-116 colon, 32 nM. Moreover, the GI50 in the assay with UACC-62 melanoma is 29.2 nM; with SR leukemia, 11.4 nM; with HOP-92 NSCLC, 3620 nM; in the assay with HCT-15 colon, 16.7 nM. Moreover, the TGI with KM12 colon was 11100 nM; with SF-539 CNS, 714 nM; in the assay on T-47D breast, > 100000 nM; in the assay on UACC-257 melanoma, > 100000 nM; in the assay with MALME-3M melanoma it was > 61600 nM; in the assay on HCT-116 colon it was > 38800 nM. In addition, the TGI is 40600 nM in the assay with UACC-62 melanoma, > 100000 nM with SR leukemia, > 76600 nM in the assay with HOP-92 NSCLC and > 100000 nM in the assay on HCT-15 colon.
With `CC[C@@]1(O)C(=O)OCc2c1cc1n(c2=O)Cc2c-1nc1cc(F)c(C)c3c1c2[C@@H](N)CC3`, the GI50 in the assay with KM12 colon is 20.3 nM; in the assay with SF-539 CNS it was < 10 nM; in the assay with T-47D breast, < 10 nM; in the assay with UACC-257 melanoma it was < 15.1 nM; in the assay on MALME-3M melanoma, < 14 nM; in the assay on HCT-116 colon, < 10 nM. The GI50 in the assay with UACC-62 melanoma was < 10 nM; with SR leukemia, < 10 nM; in the assay with HOP-92 NSCLC it was < 10 nM; with HCT-15 colon it was 21.5 nM. Moreover, the TGI in the assay on KM12 colon is 24700 nM; with SF-539 CNS, 18.7 nM; in the assay on T-47D breast, > 100000 nM; in the assay on UACC-257 melanoma it was 981 nM; in the assay with MALME-3M melanoma, 281 nM; with HCT-116 colon it was 12300 nM. The TGI in the assay on UACC-62 melanoma is 20.8 nM; with SR leukemia, > 100000 nM; in the assay on HOP-92 NSCLC it was 307 nM; in the assay on HCT-15 colon, > 100000 nM.
For the molecule `C/C(=N\NC(=S)N1CC2CCC(CC2)C1)c1ccccn1`, the GI50 in the assay with KM12 colon is 83.7 nM; in the assay on SF-539 CNS, 257 nM; in the assay on T-47D breast, 11.3 nM; in the assay with UACC-257 melanoma, 21.4 nM; with MALME-3M melanoma it was 121 nM; in the assay with HCT-116 colon, < 10 nM. In addition, the GI50 in the assay on UACC-62 melanoma was 309 nM; in the assay on SR leukemia, 42.4 nM; with HOP-92 NSCLC, 25.5 nM; in the assay with HCT-15 colon it was 31.3 nM. Moreover, the TGI in the assay on KM12 colon is 1590 nM; in the assay on SF-539 CNS, 2340 nM; in the assay on T-47D breast, 1390 nM; in the assay on UACC-257 melanoma, 357 nM; in the assay on MALME-3M melanoma, 1490 nM; in the assay on HCT-116 colon it was 1150 nM. The TGI in the assay with UACC-62 melanoma came to 3300 nM; with SR leukemia it was 2220 nM; in the assay with HOP-92 NSCLC, 793 nM; in the assay with HCT-15 colon, 2510 nM.
Turning to `Nc1nc(N)nc(CCCc2nc(N)nc(N)n2)n1`, the TGI in the assay with KM12 colon, in the assay with SF-539 CNS, with T-47D breast, in the assay on UACC-257 melanoma, in the assay on MALME-3M melanoma and in the assay with HCT-116 colon was > 100000 nM in each case. Moreover, the TGI in the assay with UACC-62 melanoma, in the assay with SR leukemia, in the assay with HOP-92 NSCLC and in the assay on HCT-15 colon was > 100000 nM throughout.
Take `CCCCCCCCCCCCOC1C(C(CC(=O)NCCN2CCCC2)NS(=O)(=O)c2cc(Cl)cc(Cl)c2)OC2OC(C)(C)OC21` (centres undefined): the GI50 in the assay on KM12 colon was 1810 nM; with SF-539 CNS it was 2010 nM; with UACC-257 melanoma it was 2040 nM; in the assay with MALME-3M melanoma, 1890 nM; in the assay with HCT-116 colon it was 1850 nM; with UACC-62 melanoma it was 1850 nM. Besides, the GI50 with SR leukemia was 1480 nM; in the assay on HOP-92 NSCLC it was 1490 nM; with HCT-15 colon it was 1710 nM. Besides, the TGI is 3450 nM in the assay on KM12 colon; 3480 nM with SF-539 CNS; 4460 nM and 2040 nM with T-47D breast; 4840 nM in the assay on UACC-257 melanoma; 3620 nM in the assay with MALME-3M melanoma; 4780 nM with HCT-116 colon. Besides, the TGI in the assay with UACC-62 melanoma worked out at 3300 nM; in the assay on SR leukemia, 3830 nM; with HOP-92 NSCLC it was 3000 nM; in the assay with HCT-15 colon, 3180 nM.
Take `O=C(OCc1ccc2c(Cl)cc(Cl)c(O)c2n1)N1CCN(C(=O)c2cc3cc(F)ccc3[nH]2)CC1`: the GI50 with KM12 colon was 580 nM; with SF-539 CNS, 403 nM; with T-47D breast, > 100000 nM; with UACC-257 melanoma, > 100000 nM; in the assay with MALME-3M melanoma, 3710 nM; in the assay on HCT-116 colon, 392 nM. In addition, the GI50 with UACC-62 melanoma is 1280 nM; in the assay with SR leukemia it was 401 nM; in the assay with HOP-92 NSCLC, 3100 nM; with HCT-15 colon, 1140 nM. For the same molecule, the TGI with KM12 colon was > 41300 nM; in the assay with SF-539 CNS, 3020 nM; in the assay on T-47D breast it was > 100000 nM; with UACC-257 melanoma it was > 100000 nM; in the assay with MALME-3M melanoma, > 100000 nM; with HCT-116 colon, > 100000 nM. For the same molecule, the TGI in the assay with UACC-62 melanoma, with SR leukemia, in the assay on HOP-92 NSCLC and with HCT-15 colon was > 100000 nM each time.
As for `C[C@]12CC[C@@H]3c4ccc(O)c([N+](=O)[O-])c4CC[C@H]3[C@@H]1CC[C@@H]2NS(=O)(=O)c1cccc(Br)c1`, the GI50 with KM12 colon is 1890 nM; in the assay on SF-539 CNS it was 1550 nM; with T-47D breast, 1800 nM; in the assay on UACC-257 melanoma it was 2100 nM; in the assay on MALME-3M melanoma, 2170 nM; with HCT-116 colon, 1920 nM. Moreover, the GI50 with UACC-62 melanoma is 1600 nM; in the assay on SR leukemia it was 3090 nM; with HOP-92 NSCLC it was 1530 nM; with HCT-15 colon, 1590 nM. Moreover, the TGI in the assay on KM12 colon came out at 4050 nM; in the assay on SF-539 CNS it was 3240 nM; in the assay with T-47D breast it was 3960 nM; in the assay on UACC-257 melanoma, 5040 nM; in the assay with MALME-3M melanoma it was 5400 nM; with HCT-116 colon, 4170 nM. In addition, the TGI is 3690 nM in the assay on UACC-62 melanoma, 9410 nM in the assay with SR leukemia, 5030 nM in the assay with HOP-92 NSCLC and 3090 nM in the assay with HCT-15 colon.
Consider `Cc1ccc(Nc2nnc(-c3ccc4c(c3)OCO4)o2)c(C)c1`, for which the TGI with KM12 colon, in the assay with SF-539 CNS, with T-47D breast, in the assay with UACC-257 melanoma, with MALME-3M melanoma and in the assay with HCT-116 colon was > 100000 nM in each case. The TGI in the assay with UACC-62 melanoma, in the assay on SR leukemia, with HOP-92 NSCLC and in the assay with HCT-15 colon was > 100000 nM in each case.
